# Experiments:
# [1] = test system: Spontaneous trigeminal allodynia (STA) rats; assay: Tactile sensory testing with von Frey monofilaments in STA rats; type: in vivo, rat; settings: injected, versus (S)-isometheptene mucate treated or control rats
# From the text: Pain, headaches, and migraines have been modeled in animals such as mice and rats. For example, Oshinsky et al. (Oshinsky, M. L., et al., Spontaneous Trigeminal Allodynia in Rats: A Model of Primary Headache, 2012, 52: 1336-1349) describes spontaneous trigeminal allodynia (STA) rats with the inherited trait of spontaneously changing trigeminal von Frey thresholds. These rats are a model of spontaneous headache and can be used as a model of primary headache. Through a series of tactile sensory tests, the periorbital, hind-paw, and jaw-pressure thresholds for STA rats are determined by applying von Frey monofilaments. […] Analgesic activity of the compositions described herein can be evaluated by determining trigeminal von Frey thresholds in STA rats. […]
# STA rats and litter mates without the trait were injected with compounds selected from (R)-isometheptene mucate and (5)-isometheptene mucate on days when their thresholds in spontaneous allodynia rats were 4 g or below for STA rats. […] Tactile sensory thresholds were recorded prior to and following injections at 0.5 hours, 1.5 hours, 2.5 hours, 3.5 hours, and 24 hours. […]
# Periorbital, hind-paw, and jaw-pressure thresholds were determined by applying von Frey monofilaments (Stoelting Co., Wood Dale, Ill., USA). […] Left and right threshold data were recorded separately. […]
# mice = assay: Formalin Test, late phase (licking score); type: in vivo; settings: mouse, 5% formalin intraplantar, three doses p.o. 15 minutes before the test, 15-50 min after formalin
# From the text: Common mouse models for pain include the Formalin Test (Wheeler-Aceto, et al., Psychopharmacology, 104, 35-44, 1991), the Hot Plate Test (Eddy and Leimbach, J. Pharmacol. Exp. Ther., 107, 385-393, 1953), and the Tail-flick Test (D'Amour and Smith, J. Pharmacol. Exp. Ther., 1, 74-79, 1941). These methods detect analgesic activity of compositions of interest. In the Formalin Test, mice are given an intraplantar injection of 5% formalin into one posterior hindpaw to induce paw licking. Test compositions are given to the mice before treatment with formalin and the mice are evaluated and compared to a control group. In the Hot Plate Test, mice are placed onto a hot metal plate maintained at 54° C. and the latency to the first foot-lick is measured. As with the Formalin test, compositions of interest are given to the mice before the test and the mice are evaluated and compared to a control group. In the Tail-flick Test, a mouse's tail is heated by means of a thermal light source, and the latency before the animal withdraws its tail is measured. […]
# Mice were given an intraplantar injection of 5% formalin (25 μL) into one posterior hindpaw. […] Mice were briefly observed at one minute intervals between 15 and 50 minutes after the injection of formalin and the number of occasions that the mice were observed licking the injected paw was recorded. […]
compound,measurement,setting,value
CN[C@H](C)CCC=C(C)C [(R)-isometheptene mucate],Tactile sensory (von Frey) threshold values,[1],dramatic increase in threshold values
same,Licking score compared to vehicle,mice,reduction in licking score

# — US20150258197A1, “EUTECTIC ISOMETHEPTENE MUCATE” (TONIX PHARMA HOLDINGS LIMITED, priority 2014, published 2015)
